Legend:
[1] = test system: orthotopic 22Rv-1 human prostate cancer xenografts; assay: Confocal microscopy of tumors after injection of peptides, phage and micelles; format: in vivo, mice; conditions: free peptides 2 hrs, phage 15 min, micelles 3 hrs circulation
Method: (§1) Statistical analysis was performed with Student's t-test.

PPC1 cells [2] = assay: In vitro phage binding assay; format: cell-based, human; conditions: for effect of trypsin treatment on binding to PPC1 cells: treatment with trypsin; for phage binding to cells: PPC1 cells, 1 hour at 4° C., phage-displayed peptide
Method: (§2) PPC1 cells were incubated with the phage for 1 hour at 4° C. (A) or 37° C. (B). Phage that bound to the cell surface (A) or those that had internalized into the cells (B) were rescued for titration.
(§3) FIGS. 8A and 8B show the binding (A) and internalization (B) of phage displaying CG7C (control phage), iRGD1, and iRGD1 mutants that carry an alanine substitution for each amino acid (underlined) (SEQ ID NOs:1 and 304-310). PPC1 cells were incubated with the phage for 1 hour at 4° C. (A) or 37° C. (B). Phage that bound to the cell surface (A) or those that internalized into the cells were rescued for titration.
(§4) PPC1 cells were incubated with the phage for 1 hour at 4° C. (A) or 37° C. (B). Phage that bound to the cell surface (A) or those that had internalized into the cells were rescued for titration.
(§5) Suspended cells (10^6 cells in DMEM containing 1% BSA) were incubated with 10^8 pfu/ml of T7 phage for 1 hr at 4° C. The cells were washed 4 times with the binding buffer, lysed with lysogeny broth containing 1% NP-40, and titrated. Phage internalization assays used the same procedure, except that the cells were incubated with phage at 37° C., and that an acidic buffer (500 mM sodium chloride, 0.1 M glycine, 1% BSA, pH 2.5) was substituted for the binding buffer in the second wash. Inhibitors of binding and internalization were added 20 min prior to incubation with phage. Non-infectious phage were prepared by treating phage with UV for 8 min in DMEM containing 1% BSA. The resulting UV-inactivated phage particles expressing about 200 peptides per particle were used as multivalent inhibitors. Free synthetic peptides, mouse antibodies against human α1, α2, αvβ3, αvβ5, α5β1, α4, or αv integrins and integrin subunits (Chemicon), goat anti-rat neuropilin-1 (R&D Systems, Minneapolis, Minn.), with mouse and a goat IgG isotype controls (Abcam) were also tested.

αv integrins = conditions: Koivunen et al. 1993, 1995; cited from earlier work
PPC1 cells [3] = assay: In vitro phage internalization assay; format: cell-based, human; conditions: for phage internalization into cells: 1 hour at 37° C., acid wash, phage-displayed peptide
Method: as §2, §3, §4
To assess the internalization, the phage that bound to the cell surface were removed by washing the cells with acid buffer before phage titration. […] Statistical analysis was performed with Student's t-test. n=3, error bars represent s.d.
Mice were maintained in accordance with institutional guidelines and the animal experiments were approved by the Animal Research Committees at University of California, Santa Barbara and San Francisco. We used transgenic tumor mice (Bardeesy and DePinho, (2002); Arbeit et al., Progressive squamous epithelial neoplasia in K14-human papillomavirus type 16 transgenic mice. J. Virol. 68, 4358-4368 (1994); Hanahan, Heritable formation of pancreatic β-cell tumors in transgenic mice expressing recombinant insulin/simian virus 40 oncogenes. Nature 315, 115-122 (1985)) and xenograft tumors generated by injecting BALB/c nude mice (Harlan Sprague Dawley, Indianapolis, Ind.) with 10^6 human cancer cells orthotopically, intracardiacly or into the brain and tibia. […] Phage homing studies in vivo and cell binding studies in vitro (Zhang et al., (2006)), immunofluorescence (Karmali et al. (2008)) and flow cytometry (Sugahara et al., Hyaluronan oligosaccharides induce CD44 cleavage and promote cell migration in CD44-expressing tumor cells. J. Biol. Chem. 278, 32259-32265 (2003)) were done as described. Whole body imaging was performed 3 hrs after injecting the Cy7-labelled micelles with the Odyssey Infrared Imaging System (LI-COR Biosciences, Lincoln, Nebr.). In phage internalization assays, the cells were treated with 10^9 plaque forming units (pfu) of phage for 1 hr at 37° C., washed with an acidic buffer (glycine-HCl, pH 2.5) to remove and inactivate phage bound to the cell surface, and lysed for phage titration. Peptide internalization was studied by incubating cells with 20 μM of FAM-labelled peptide for 90 min at 37° C. […] To inhibit the binding and/or internalization of the phage, synthetic peptides or phage rendered non-infectious by UV-irradiation were added to the cells 20 min before incubation with the test phage. FAM-labelled peptides in tissues were quantified by measuring the fluorescence with Image J software. Student's t-test and one-way analysis of variance (ANOVA) followed by a suitable post hoc t-test were used for statistical analysis (Table 3).
as §5, with “Free synthetic peptides, mouse antibodies against human α1, α2, αvβ3, αvβ5, α5β1, α4, or αv integrins and integrin subunits (Chemicon), goat anti-rat neuropilin-1 (R&D Systems, Minneapolis, Minn.), with mouse and a goat IgG isotype controls (Abcam) were also tested.” left out

PPC1 cells [4] = assay: Confocal microscopy of cells incubated with phage; format: cell-based, human
Source text: Phage bound to the cell surface were removed by washing the cells with a acidic buffer, and internalized phage were rescued and titrated.
The cells were stained for phage, neuropilin-1, and nuclei. The right panel is a high magnification view of the dotted area in the left panel. […] In almost all tumor ducts examined, αv integrins were positive. […] Scale bars=50 μm.
The cells were stained for phage (arrowed), neuropilin-1 (distal and flanking), and nuclei (central mass). The right panel of […] (SEQ ID NO:298) phage is a high magnification view of the dotted area in the left panel. […] Scale bars=10 μm.
Tissue sections were processed as described (Karmali et al. (2008)). Cells (2×10^5 cells) were grown on collagen I-coated coverslips (BD Biosciences, San Jose, Calif.) overnight, and incubated with 10^8 pfu/ml of T7 phage for 30 min. The cells were fixed in 4% paraformaldehyde, and stained with antibodies and DAPI (Molecular Probes, Eugene, Oreg.). The primary antibodies were rat anti-mouse CD31 monoclonal antibody (BD Biosciences), and rabbit anti-human αv integrin (Chemicon, Temecula, Calif.), rabbit anti-human neuropilin-1 (Chemicon), mouse anti-human neuropilin-1 (Miltenyi Biotec, Auburn, Calif.), and rabbit anti-T7 phage polyclonal antibodies. […]

PPC1 cells [5] = assay: Inhibition of iRGD phage internalization into PPC1 cells; format: cell-based, human; conditions: 37° C.; inhibitor added before test phage
Method: (§6) Phage that bound to the cell surface were titered. B, PPC1 cells were treated as described in A except that they were co-incubated with iRGD1 or CG7C phage at 37° C. The internalized phage were rescued for titering as described in the legend for FIG. 5A.
(§7) A, PPC1 cells were pre-treated with or without series of anti-integrin antibodies, or with normal mouse IgG as a control, for 30 min at 4° C., followed by incubation with iRGD1 phage or CG7C control phage for 1 hour at 4° C. (A) or 37° C. (B). Phage that bound to the cell surface (A) or those that internalized into the cells (B) were rescued and titrated.
(§8) Statistical analyses were performed with ANOVA (a, b, d) or Student's t-test (c, e).
(§9) Suspended cells (10^6 cells in DMEM containing 1% BSA) were incubated with 10^8 pfu/ml of T7 phage for 1 hr at 4° C. The cells were washed 4 times with the binding buffer, lysed with lysogeny broth containing 1% NP-40, and titrated. Phage internalization assays used the same procedure, except that the cells were incubated with phage at 37° C., and that an acidic buffer (500 mM sodium chloride, 0.1 M glycine, 1% BSA, pH 2.5) was substituted for the binding buffer in the second wash. Inhibitors of binding and internalization were added 20 min prior to incubation with phage. Non-infectious phage were prepared by treating phage with UV for 8 min in DMEM containing 1% BSA. […]

M21 cells = assay: CRGDK phage binding and internalization, M21 cells; format: cell-based, human
Method: as §8, §5

PPC1 cells [6] = assay: Inhibition of iRGE phage internalization within PPC1 cells; format: cell-based, human; conditions: non-infectious phage as inhibitor
Method: as §8, §5

[7] = test system: pancreatic ductal adenocarcinoma (PDAC) tumors; assay: In vivo homing of FAM-labelled peptide to PDAC tumors; set-up: species or system mice; conditions: for effect of excess unlabelled peptide on accumulation of FAM-iRGD in tumors: 10-fold excess injected 30 min before FAM-iRGD
Method: FIGS. 3A and 3B show tumor homing of iRGD1 peptide into murine pancreatic carcinoma. A, 200 μg of […] iRGD1 peptide was injected through the tail vein into transgenic mice with pancreatic ductal adenocarcinoma (PDAC) and the peptide was allowed to circulate for 4.5 hrs. B, An excess of non-labeled iRGD1 (2 mg/mouse) was injected into the PDAC mice 30 min prior to the injection of the […] iRGD1 peptide as described in A. Shown are harvested organs observed under UV light (left) and white light (right).
Approximately 200 μg of FAM-iRGD1 was injected into mice bearing PDACs and allowed to circulate for 15 min (A), 30 min (B), 2 hrs (C) and 4.5 hrs (D). The nuclear staining with DAPI and vascular endothelial cell staining with an anti-CD31 antibody, respectively are shown. Note that at 15 (A) to 30 min (B) post-injection of FAM-iRGD1, the dye stays in the vessels (arrows) or in the cells surrounding the vessels (A, arrowheads in window at the right upper corner), but no vascular staining with the peptides is observed after 2 hrs (C, arrow) or 4.5 hrs (D, arrow). At 30 min post peptide injection, the peptide fluorescence appears in tumor glands (B, main panel and upper right corner inset); some individual cells within the tumor are strongly positive after 2 hrs (C, asterisks) and 4.5 hrs (D, asterisk).
as §1
Approximately 200 μg of […] iRGD1 peptide (FAM-iRGD1) was injected through the tail vein into immuno-deficient mice bearing xenograft of PPC1 human prostate carcinoma, MIA PaCa-2 human pancreatic carcinoma, or MDA-MB-435 human breast carcinoma and was allowed to circulate for 4.5 hrs (FIG. 2). […] Confocal microscopy of PDAC tumor sections from animals injected with FAM-iRGD1 indicated time-dependent in vivo homing dynamics for this peptide. […] The peptide fluorescence associated with the tumors cells was condensed into the perinuclear area of the tumor cells (FIGS. 4C and 4D, asterisks).

PPC1 cells [8] = assay: Inhibition of iRGD phage binding to PPC1 cells; format: cell-based, human; conditions: 4° C.; inhibitor added before test phage
Method: as §6, §7, §9

M21 human melanoma cells = assay: iRGD phage binding to M21 cells; format: cell-based
Method: as §5

PPC1 cells [9] = assay: Inhibition of trypsin-treated iRGD phage binding to PPC1 cells; format: cell-based, human; conditions: 4° C.; non-infectious phage as inhibitor
Method: as §8, §5

PPC1 cells [10] = assay: Inhibition of CRGDK phage binding to PPC1 cells; format: cell-based, human
Method: as §8, §5

Substance: CDCRGDCFC [RGD-4C]
- distribution within tumor (confocal microscopy) [1]: accumulated only in and around tumor blood vessels
- effect of trypsin treatment on binding to PPC1 cells (PPC1 cells [2]): no effect
- affinity for αv integrins (αv integrins): strong affinity

Substance: CRG [CRG phage]
- phage binding to cells (PPC1 cells [2]): did not
- phage internalization into cells (PPC1 cells [3]): did not

Substance: CRGD [CRGD phage]
- phage binding to cells (PPC1 cells [2]): did not
- phage internalization into cells (PPC1 cells [3]): did not

Substance: CRGDC
- distribution within tumor (confocal microscopy) [1]: accumulated only in and around tumor blood vessels
- effect of trypsin treatment on binding to PPC1 cells (PPC1 cells [2]): no effect
- affinity for αv integrins (αv integrins): strong affinity

Substance: CRGDGGPDC
- co-localization with neuropilin-1 (confocal microscopy) (PPC1 cells [4]): did not co-localize
- internalization into cells (confocal microscopy) (PPC1 cells [4]): nor did they internalize

Substance: CRGDK [CRGDK phage]
- phage binding to cells (PPC1 cells [2]): bound to
- internalization relative to iRGD phage (PPC1 cells [3]; 37° C.): more efficiently than iRGD phage
- phage internalization into cells (PPC1 cells [3]): internalized
- inhibition of iRGD phage internalization into PPC1 cells (PPC1 cells [5]): blocked
- binding to M21 cells with different αv integrin expression levels (M21 cells): binds similarly
- phage binding to M21 cells with minimal expression of neuropilin-1 (M21 cells): did not substantially bind
- phage internalization into M21 cells with minimal expression of neuropilin-1 (M21 cells; 1 hour at 37° C.): did not substantially bind to or internalize
- increase of binding by forced expression of neuropilin-1 (M21 cells; M21 cells transfected with neuropilin-1 cDNA): 3.5 fold
- increase of internalization by forced expression of neuropilin-1 (M21 cells; M21 cells transfected with neuropilin-1 cDNA, not shown): 3.5 fold
- internalization relative to iRGD phage (M21 cells; M21 cells, 1 hour at 37° C.): reversed
- inhibition of iRGE phage internalization within PPC1 cells (PPC1 cells [6]): inhibited the internalization

Substance: CRGDKG [CRGDKG phage]
- phage binding to cells (PPC1 cells [2]): bound
- phage internalization into cells (PPC1 cells [3]): internalized

Substance: CRGDKGPDC [iRGD1]
- effect of excess unlabeled peptide on accumulation of FAM-iRGD1 in PDAC tumors ([7]; 2 mg/mouse 30 min prior to FAM-iRGD1): inhibited the accumulation
- effect of excess unlabelled peptide on accumulation of FAM-iRGD in tumors [7]: greatly reduced
- inhibition of iRGD phage binding to PPC1 cells (PPC1 cells [8]): inhibited in a dose-dependent manner
- binding to M21 cells that express both αvβ3 and αvβ5 (M21 human melanoma cells): bound
- binding to M21 variants lacking expression of αvβ3 and αvβ5 (M21 human melanoma cells): did not

Substance: CRGDKGPEC [iRGD3]
- phage binding to cells (PPC1 cells [2]): similar
- phage internalization into cells (PPC1 cells [3]): similar

Substance: CRGDRGPDC [iRGD2]
- phage binding to cells (PPC1 cells [2]): similar
- phage internalization into cells (PPC1 cells [3]): similar

Substance: CRGEKGPDC [iRGE, reference compound]
- effect of excess unlabelled peptide on accumulation of FAM-iRGD in tumors [7]: did not have the same effect

Substance: RPARPAR [RPARPAR phage]
- inhibition of iRGD phage internalization into PPC1 cells (PPC1 cells [5]): blocked
- inhibition of binding of trypsin-treated iRGD phage (PPC1 cells [9]): blocked
- inhibition of CRGDK phage binding to PPC1 cells (PPC1 cells [10]): dose-dependently inhibited
- inhibition of iRGE phage internalization within PPC1 cells (PPC1 cells [6]): inhibited the internalization
